According to ChEMBL document CHEMBL3044599, “Structure-activity relationship of citrus polymethoxylated flavones and their inhibitory effects on Aspergillus niger” (J Agric Food Chem, 2012):
Activity calls are given as the source filed them. The rule behind the calls is not given here.

Tested on: Aspergillus niger
Test: Antifungal activity against Aspergillus niger CICC 2273 assessed as inhibition of mycelial growth by microbroth dilution method
Assay type: functional, organism-based

| SMILES | inhibition |
| --- | --- |
| COc1ccc(-c2oc3cc(OC)c(OC)c(OC)c3c(=O)c2OC)cc1OC | Active |
| COc1ccc(-c2oc3c(OC)c(OC)c(OC)c(OC)c3c(=O)c2O)cc1OC | inactive |
| CC(=O)C[C@H]1O[C@@H](Oc2ccc3c(=O)cc(-c4ccccc4)oc3c2)[C@H](O)[C@@H](O)[C@@H]1O | inactive |
| COc1ccc(-c2cc(=O)c3c(OC)c(OC)c(OC)cc3o2)cc1 | Active |
| COc1ccc(-c2cc(=O)c3c(O)c(OC)c(OC)c(OC)c3o2)cc1OC | Active |
| COc1ccc(-c2cc(=O)c3c(OC)c(OC)c(OC)c(OC)c3o2)cc1OC | Active |
